# Read-outs that look alike come from different tables or passages of the source.
# How the values were obtained:
# [1] = Enzymatic stability (kinetics of enzymatic hydrolysis) in rat plasma; format: in vitro ADME; conditions: for half-life at 3.8 µM: plasma (80%), pH 7.4, read-out: t1/2, enzymatic stability (converted)
# Procedure: Enzymatic stability studies in rat and human plasma were performed for both the racemate and its enantiomers (Table 1). […] Considering the high stability of (±)-1 and its enantiomers in simulated physiological fluids and human plasma, these compounds could reach the target site without undergoing esterase metabolism.
# Human plasma was purchased from 3H Biomedical (Uppsala, Sweden, Europe). Plasma aliquots (4 mL) were diluted with 0.02 M PBS (pH 7.4) to obtain a final volume of 5 mL containing 80% plasma. Studies were performed at 37 ± 0.5 °C using a shaking bath. Each experiment was started by adding a 10^–4 M drug stock solution (200 μL) to the preheated plasma. Hundred microliters of the thermostated medium was taken at various times, treated with cold methanol (500 μL) to precipitate plasma proteins, and centrifugated (5 min at 5000g). The supernatant was analyzed by HPLC to quantify the amount of the residual intact compound.
# [2] = test system: HREC stimulated with VEGF-A; assay: Wound healing assay (cell motility) in HREC stimulated by VEGF-A; format: cell-based, human; conditions: 48 h; for effect of AC927 cotreatment on the compound's inhibition of VEGF-A-mediated HREC motility: 5 μM compound + 2 μM AC927, 80 ng/mL VEGF-A; for effect of PTZ cotreatment on the compound's inhibition of VEGF-A-mediated HREC motility: 5 μM compound + 2 μM PTZ
# Procedure: Unregulated stimulation of endothelial cell motility by VEGF-A underlies pathological angiogenesis.[41] Therefore, the effects of (±)-1, (+)-1, and (−)-1 on HREC motility stimulated by VEGF-A (80 ng/mL) were evaluated with the wound healing assays (Figures 3 and S3–S5). VEGF-A promoted HREC migration compared to untreated controls, inducing complete wound closures at 24 h (Figures S3–S5). […] Cotreatments with both AC927 and PTZ reduced (±)-1 and (+)-1 abilities to inhibit VEGF-A-mediated wound healing (Figure 3A,B). […] The representative images of HREC treated with VEGF-A and three prodrug derivatives after the scratch wound are shown in the Supporting Information (Figures S2–S4A).
# (§1) HREC and 92-1 cells (2.5 × 10^5 cells/well) were seeded into 24 well plates and grown to confluency. Confluent cell monolayers were scratched with a p200 pipet tip to create 1 mm wide wounds. After washing (three times) with PBS to remove cell debris, wounded monolayers were incubated for 48 h (37 °C) in the complete medium in the presence of the indicated treatments. HREC were treated for 48 h in the presence of (±)-1, (+)-1, or (−)-1 with or without VEGF-A (80 ng/mL), AC927, and PTZ. 92-1 cells were treated for 48 h in the presence of (±)-1, (+)-1, or (−)-1. Wound closure was monitored by photographs at 40X using a phase-contrast microscope in each culture condition and at each time point (0, 24, and 48 h for HREC and 0, 6, 24, 30, and 48 h for 92-1 cells). The numbers of cells toward the wounds were counted using ImageJ software (ImageJ 1.50e, National Institutes of Health, NIH, Bethesda, MD) and were quantified by measuring the distance traveled over time by both cell fronts into the wound area.
# [3] = test system: HREC stimulated with VEGF-A; assay: Tube formation assay (Matrigel) in HREC stimulated with VEGF-A; format: cell-based, human; conditions: 24 h; for effect on VEGF-A-stimulated tube formation in HREC: 5 μM
# Procedure: To further explore effects on angiogenesis, tube formation assays with HREC were evaluated. Following seeding onto basement membranelike Matrigel and stimulation for 24 h with VEGF-A (80 ng/mL), HREC organized into networks of tubular structures mimicking capillary formation in neoangiogenesis (Figure 4A).
# The tube formation assay was analyzed in vitro in BD Matrigel, following the manufacturer’s instructions (BD, Bedford). In brief, 96-well plates were coated with 50 μL of Matrigel and allowed to solidify at 37 °C for 2 h. HREC were seeded at 1.5 × 10^4 cells/well in 100 μL of medium with (±)-1, (+)-1, or (−)-1 in the presence or absence of VEGF-A (80 ng/mL), AC927, and PTZ. After […] of incubation, tubelike structures were photographed at 10× magnification using an inverted microscope (Leica DM IRB) equipped with a CCD camera. Tube formations were quantified with ImageJ software (NIH, Bethesda, MD).
# human UM 92-1 cells = assay: Crystal violet proliferation assay in human UM 92-1 cells; format: cell-based; conditions: for IC50: 48 h
# Procedure: Then, actions on cell proliferation were examined by crystal violet staining (Figure 6).
# HREC and human 92-1 cell (seeded 4 × 10^3 and grown for 24 h at optimum culture conditions) proliferation was measured using crystal violet staining after treatment in 96-well plates with the indicated concentrations of chemicals for an additional 48 h. Control cells received an equal volume of vehicle (DMSO). At the end of the treatment, each well was washed with phosphate-buffered saline (PBS). Following this, the cells were fixed (in 4% paraformaldehyde) and stained with crystal violet solution (0.5% in 20% methanol for HREC or 1% aqueous solution for 92-1 cells). Subsequently, the plate was washed with water and left to dry. Crystal violet staining was evaluated by measuring the absorbance at 570 nm or 590 nm, after crystal violet extraction with 10% acetic acid (at room temperature for 10 min), with a microplate reader with the plate reader (Synergy 2-BioTek). For quantification, each assay was carried out in triplicate.
# [4] = test system: human 92-1 uveal melanoma cells; assay: Wound healing assay (cell migration) in human 92-1 uveal melanoma cells; format: cell-based; conditions: for effect on 92-1 cell migration: 3 μM, over 48 h time courses; for IC50: Homo sapiens, read-out: IC50, inhibition of 92-1 cell migration (wound healing)
# Procedure: Finally, tumor cell migration was explored with the wound healing assay (Figure 7). (±)-1, (+)-1, and (−)-1 inhibited 92-1 cell migration over 48 h time courses (Figure 7A). […] In particular, the derivative (−)-1 exerted the highest antimigratory effects compared to the (+)-enantiomer (>10-fold) or the racemic mixture (±)-1 (>40-fold; Figure 7B). These actions closely mirror those observed in HREC migration (Figure 3) and could similarly reflect signaling through σ receptors by the HP-mII molecular component of the prodrugs, without VPA/HDAC involvement. Indeed, their differential potencies in motility inhibition (Figure 7) are aligned with increasing binding affinities for σ2 receptors from (±)-1 to (+)-1 and (−)-1 (Table 2), thus implicating the stereochemical diversity of HP-mII enantiomeric components as an underlying molecular mechanism able to regulate cell migration.
# as §1
# [5] = Homo sapiens, read-out: IC50 on human 92-1 cells (proliferation, crystal violet), 48 h
# [6] = read-out: IC50 on human 92-1 cells (proliferation, crystal violet)
SMILES,"Kobs, enzymatic stability [1] [h^–1]",half-life at 3.8 µM [1] [min],effect of AC927 cotreatment on the compound's inhibition of VEGF-A-mediated HREC motility [2],effect of PTZ cotreatment on the compound's inhibition of VEGF-A-mediated HREC motility ([2]; 80 ng/mL VEGF-A),"effect of AC927 on the compound's action on VEGF-A-stimulated tube formation ([3]; 5 μM compound + 2 μM AC927, 80 ng/mL VEGF-A)","effect of PTZ on the compound's action on VEGF-A-stimulated tube formation ([3]; 5 μM compound + 2 μM PTZ, 80 ng/mL VEGF-A)",effect on VEGF-A-stimulated tube formation in HREC ([3]; 80 ng/mL VEGF-A),"effect of PTZ, AC927 or their combination on the antiproliferative effects of the compound in 92-1 cells (human UM 92-1 cells; 5 μM compound, PTZ 2 μM, AC927 2 μM)",IC50 (human UM 92-1 cells; [5]) [µM],antiproliferative effect with respect to VPA alone (human UM 92-1 cells; UM 92-1 cells),IC50 (human UM 92-1 cells; [6]) [µM],effect on 92-1 cell migration [4],IC50 ([4]; 48 h) [µM],"effect on VEGF-A-mediated HREC migration (wound healing) ([2]; 5 μM, 80 ng/mL VEGF-A)","antimigratory effect compared to the (+)-enantiomer ([4]; 92-1 cells, 48 h) [fold]","antimigratory effect compared to the racemic mixture (±)-1 ([4]; 92-1 cells, 48 h) [fold]"
CCCC(CCC)C(=O)OC(CCCN1CCC(O)(c2ccc(Cl)cc2)CC1)c1ccc(F)cc1 (racemic) [(±)-1],2.96 ± 0.01,14 ± 0.18,"significantly, but partially, opposed","significantly, but partially, opposed",partially and equally blocked,partially and equally blocked,blocked,did not perturb,5.46,about 400 fold,5.5 ± 0.74,inhibited,4.22,,,
CCCC(CCC)C(=O)O[C@H](CCCN1CCC(O)(c2ccc(Cl)cc2)CC1)c1ccc(F)cc1 [(+)-1],1.60 ± 0.005,26.04 ± 0.12,reduced,significantly and completely blocked,,,blocked,,4.95,,4.9 ± 0.58,inhibited,1.15,,,
CCCC(CCC)C(=O)O[C@@H](CCCN1CCC(O)(c2ccc(Cl)cc2)CC1)c1ccc(F)cc1 [(−)-1],2.15 ± 0.03,19.3 ± 0.6,"prevented, in part",,,,blocked,,4.45,,4.4 ± 0.68,inhibited,0.09,highest reduction,> 10,> 40

# — publication PMC8474110 (Journal of Medicinal Chemistry, 2021)
